# Experimental data taken from patent US20090202499A1, “Human Telomerase Reverse Transcriptase Peptides” (priority 2006, published 2009).
# Entries after “also recorded” stand apart in the source; their conditions may differ. Where two headings read alike, the source gives them in different places.
# Experiments:
# B*0702 = B*0702 (Homo sapiens, UniProt P01889); assay: competition solid-phase radioimmunoassay on purified HLA molecule; type: binding
# Protocol: (§1) Supertype analysis. Quantitative assays to measure the binding affinity of peptides to purified HLA B7-supertype molecules (B*0702, B*3501, B*5101, B*5301, B*5401) and B*0801 were based on the inhibition of binding of a radiolabeled standard peptide, and were performed as previously described (22, 35). Briefly, 1-10 nM of radiolabeled peptide was co-incubated at room temperature with 1 microM to 1 nM of purified MHC in the presence of 1-3 μM human beta2-microglobulin (Scripps Laboratories, San Diego, Calif.) and a cocktail of protease inhibitors. After a two-day incubation, binding of the radiolabeled peptide to the corresponding MHC class I molecule was determined by capturing MHC/peptide complexes on Greiner Lumitrac 600 microplates (Greiner Bio-one, Longwood, Fla.) coated with the W6/32 antibody, and measuring bound counts per minute (cpm) using the TopCount microscintillation counter (Packard Instrument Co.). […] Under the conditions utilized, where [label]<[MHC] and IC50≧[MHC], the measured IC50 values are reasonable approximations of the true Kd values.
# Next, we assessed the actual binding avidity for HLA-B7 (HLA-B*0702). Two independent assays were used: binding stabilization assay on T2-B7 cells by flow cytometry (12) and a competitive solid-phase radioimmunoassay on immobilized purified HLA-B7 molecule (35).
# B*3501 = B*3501 (Homo sapiens, UniProt P01889, A329T/A93T/A95T/C349S/D201E/D98Y/E176V/E187L/E204Q/E69T/I218V/K202T/L119I/Q94N/R155S/R180L/S121R/S35A/S48A/T118I/V127L/V306I/V36M/Y140S/Y91F); assay: HLA-B7 supertype binding assay
# Protocol: as §1
# (§2) HLA molecules are highly polymorphic posing problems to the identification of peptides, which could be used to cover the totality of the human population. However, HLA alleles can be clustered into a relatively small number of groups termed supertypes (21). The HLA-B7 supertype includes ten alleles (22). Here, we decided to test the selected hTRT peptides for their ability to bind five out of ten members of the HLA-B7 supertype (B*3501, B*5101, B*5301, B*5401) and B*0801. The B*0801 allele shares binding features with B*0702, although is not officially part of the HLA-B7 supertype. This analysis had the purpose to further narrow the selection of putative HLA-B7 immunogens based on supertype binding (Table V).
# B*5101 = B*5101 (Homo sapiens, UniProt P01889, A329T/A93T/A95T/C349S/D138N/D201E/D98Y/E187L/E204Q/E69T/G107R/I218V/K202T/L105A/L119W/N104I/Q94N/R106L/R155S/R180L/S101N/S121T/S35A/S48A/V306I/V36M/Y195H/Y91F); assay: HLA-B7 supertype binding assay
# Protocol: as §1, §2
# B*5301 = B*5301 (Homo sapiens, UniProt P01889, A329T/A93T/A95T/C349S/D201E/D98Y/E176V/E187L/E204Q/E69T/G107R/I218V/K202T/L105A/L119I/N104I/Q94N/R106L/R155S/R180L/S101N/S121R/S35A/S48A/T118I/V127L/V306I/V36M/Y140S/Y91F); assay: HLA-B7 supertype binding assay
# Protocol: as §1, §2
# B*5401 = B*5401 (Homo sapiens, UniProt P01889, A329T/C349S/D138N/D201E/E176V/E187T/E204Q/E69G/I76V/K202T/L119W/R155S/R180L/S121T/S35A/S48A/V127L/V306I/V36M/Y140L); assay: HLA-B7 supertype binding assay
# Protocol: as §1, §2
# [1] = test system: RMA-B7 cells pulsed with the homologous hTRT peptide; assay: peptide immunization of HLA-B7 Tg mice, 51Cr-release assay; type: in vivo; details: 100 micrograms peptide + HBV helper peptide in IFA, s.c.
# Protocol: FIG. 1. […] HLA-B7 Tg mice were vaccinated with 100 micrograms of individual hTRT peptide together with 120 micrograms of HBV helper peptide in IFA. Ten days after immunization, spleen lymphocytes were restimulated in vitro with peptide and fresh, irradiated syngeneic APC. Restimulations were performed on a weekly basis. A standard 4 hour ^51Cr-release assay was performed on day 5 after in vitro restimulation, using RMA-B7 cells pulsed with the homologous hTRT peptide as targets and an E:T ratio of 25:1. Results are expressed as the mean specific lysis plus or minus standard deviation of responder mice only, whose number is indicated in each panel. Tests were run in duplicate.
# In vivo immunization procedures. Peptide immunization. HLA B7 transgenic mice (28) were injected s.c. at the base of the tail with 100 micro-grams of hTRT peptides along with 120 micro-grams of I-A^b MHC Class II helper peptide 128-140 of the hepatitis B virus core protein in incomplete Freunds' adjuvant as described previously (12). Long-term CTL lines were maintained in culture by weekly restimulation with irradiated, peptide-pulsed syngeneic spleen cells in RPMI-1640 medium containing 10% heat inactivated fetal bovine serum, 2 mM glutamine, 5×10^−5 M 2-Mercaptoethanol, 50 micro-grams/ml streptomycin, and 50 micro-grams/ml penicillin (complete medium) and supplemented with 40 IU/ml of recombinant human IL-2.
# CTL assays. Both murine and human CTL were detected by the ^51Cr release assay performed as previously described (14). Briefly, HLA-B7^+ antigen presenting cells (RMA-B7 or T2-B7 cells) were labeled for 1 hr with 100 micro-Ci of Na2^51CrO4 (Perkin Elmer). Washed cells (5×10^3 per well) were mixed in 96-well plates in 100 micro-liters/well with each peptide (at 10 micro-grams/ml or lower concentration) and 100 micro-liters of the CTL effector cells (at various E:T ratio) in RPMI medium. The plates were incubated for 4-5 hrs at 37° C. (5% CO2). The supernatants were harvested and counted on a Wallac 1470 Wizard Gamma counter. The percent lysis was calculated as 100 (cpmexp−cpmspont)/(cpmmax−cpmspont).
# In order to assign immunogenicity to each of the peptides and correlate this property with the binding characteristics and the scores of the predictive algorithms, we immunized HLA-B7 Tg mice (28). Ten to eleven days after immunization mice were sacrificed, the spleen harvested and splenocytes put in culture with LPS/Dextran activated APC, and tested in a 4 hour ^51Cr-release assay. As shown, only five out of seven peptides yielded a meaningful, specific CTL response even after a third cycle of in vitro restimulation (FIG. 1). All immunogenic peptides induced a response from the first in vitro restimulation and this response increased upon subsequent rounds of antigen restimulation. As noted the lysis of peptide-pulsed RMA-B7 target cells increased at each round of in vitro restimulation. No lysis occurred on RMA-B7 cells not pulsed with peptide. Thus, the in vivo results together with the actual measure of the avidity of HLA-B7 binding avidity distinguished two groups of 9mer hTRT peptides.
# B*0801 = B*0801 (Homo sapiens, UniProt P01889, A93T/A95T/D138N/E176V/E187T/K202T/Q94N/R180D/S35A/V36M/Y33D/Y91F); assay: biochemical
structure (smiles),measurement,setting,value
CSCC[C@H](NC(=O)[C@H](CC(N)=O)NC(=O)[C@H](CCCNC(=N)N)NC(=O)CNC(=O)[C@H](C)N)C(=O)N[C@@H](CCCNC(=N)N)C(=O)N[C@@H](CCCNC(=N)N)C(=O)N[C@@H](CCCCN)C(=O)N[C@@H](CC(C)C)C(=O)O [p966],IC50,B*0702,> 50000 nM
same,IC50,"B*0702; read-out: HLA class I binding capacity (IC50 nM) B*0702, Table V, purified MHC, radiolabeled standard peptide",> 50000 nM
same,IC50,B*3501,> 50 µM
same,IC50,B*5101,> 50 µM
same,IC50,B*5301,> 50 µM
same,IC50,B*5401,34.1 µM
same,"immunogenicity in vivo, CTL response after peptide immunization (in words)",[1],non-immunogenic; also recorded: poor immunogenicity; also recorded: repeated negative results
same,IC50,B*0801,> 50 µM
